The values that follow come from US9346830B2, “Method for producing amino acid chelate compounds, amino acid chelate compounds and use of amino acid chelate compounds” (ISF AG, priority 2011, dated 2016).

The conditions of data set [1]: for pH value upon addition to water: 45° C., aqueous solution. As for the experimental part:
The procedure for both syntheses was identical so that they are summarized here. 54 g of CaO or respectively MgO were each subjected to a 10-minute activation. In order to have a sufficiently high operating temperature for the thermal activation, the empty mill was already brought to an operating temperature of 110° C. before the experiments. After the mechanical activation, a thermal activation of respectively 15 min. took place in both cases.

The nature of another data set: bulk material properties. Format: physicochemical. The note with it: water content <2%. An excerpt:
The grain shape was examined with the scanning electron microscope and produced the typical, needle-shaped crystals of the glycinates and their agglomerates. With respect to the bulk material properties, the particle distribution analysis found a d50 value of 50 μm. The material is free-flowing, has a water content of <2% and is stable.

Regarding `NCC(=O)[O-].NCC(=O)[O-].[Mg+2]` [magnesium glycinate], the “pH value upon addition to water” value in data set [1] came to 8.
For the compound `NCC(=O)[O-].NCC(=O)[O-].[Cu+2]` [Example 1, bis (glycinato) copper], the “stability of the material” value in the data set “bulk material properties” is on record as “stable”.
As to `NCC(=O)[O-].NCC(=O)[O-].[Ca+2]` [calcium glycinate], in data set [1], the “pH value upon addition to water” value stood at 7.5.
For the compound `[O]=[Mg]` [MgO], in data set [1], the “stability (non-dissolution) in the presence of HCl” value is recorded as “stable up to pH 0”.
